The values that follow come from the METLIN SMRT retention time set (Domingo-Almenara et al. 2019).

Structures are written as SMILES.

The data set in a line: gradient 5% acetonitrile 3 min, to 50% in 2 min, to 85% in 15 min, held 3 min, 100 µL/min. The note with it: column: Zorbax Extend-C18 2.1 x 50 mm; eluents: water / acetonitrile, 0.1% formic acid. The essentials: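 In both positive and negative ionization mode, a quadrupole time-of-flight mass spectrometer coupled to HPLC analyzed pure standards run in mixtures of ~100 molecules. The Zorbax Extend-C18 column (2.1 × 50 mm, 1.8 μm) was operated at 100 μL/min with water and acetonitrile, each containing 0.1% formic acid. The dead volume was 40 μL and the dwell volume 900 μL. Retention time came from adduct peaks that were computationally picked and individually inspected by hand.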
`COc1ccc(CN2C[C@@H]3C(=O)N(CCCN4CCCC4=O)C(=O)[C@@H]3C2)cc1`: the RP-LC retention time came to 589 s.
`CCN1c2ccc(F)cc2C(=O)NC12CCN(C(=O)c1cc(F)cc(F)c1)CC2`: the RP-LC retention time is 1030 s.
The same measure for `COCC(=O)N(CC(=O)N1CCc2sccc2C1COc1cccc(OC)c1)C1CC1` (configuration not stated): 800 s.
The same measure for `CCc1nc2cc(-c3noc(Cc4ccc(C)cc4)n3)ccc2o1`: 1160 s; for `O=C(c1cn(-c2cc(N3CCCCC3)ncn2)cn1)N1CCCC1`: 772 s; for `O=C(CC1CCOCC1)N1CCN(C(=O)c2ccco2)CC1`: 612 s.
The result for `Brc1ccc(-c2noc(Cc3nc(-c4ccccc4)cs3)n2)cc1` reads 1350 s.
Regarding `O=C1CCSc2ccc(S(=O)(=O)N3CCN(c4ccccn4)CC3)cc2N1`, the RP-LC retention time was determined as 612 s.
The result for `COc1ccc(OC)c(NC(=O)CN2CC(C)Sc3ccccc32)c1` (configuration not stated) reads 1080 s.
`CC(C)N1C(=O)c2cccnc2Sc2cc(NC(=O)C3CCCO3)ccc21` (configuration not stated): the RP-LC retention time stood at 729 s.
The result for `O=C(NCc1ccco1)C1c2ccccc2C(=O)N(Cc2ccccc2)C12CCCC2` (configuration not stated) reads 943 s.
The result for `CCOC(=O)CNC(=O)NCC(=O)N1CCc2ccccc21` reads 658 s.
Regarding `O=C(CCC1CCCN(S(=O)(=O)c2ccccc2F)C1)NCCc1ccccc1` (configuration not stated), the RP-LC retention time was 952 s.
The same measure for `COC(=O)c1ccc(C(=O)N(Cc2ccccn2)Cc2ccco2)cc1`: 650 s.
`Cc1cc(F)ccc1N1C(=O)CN(S(C)(=O)=O)CC1(C)C(=O)NC1CCCCCCC1` (configuration not stated) returned an RP-LC retention time of 1070 s.
As for `Cc1cc(=O)n(CC(=O)N(C)c2ccccc2)c(N2CCOCC2)n1`, the RP-LC retention time was determined as 657 s.
`CCc1nnc2ccc(-c3noc(Cc4ccc(Cl)cc4)n3)cn12` registered an RP-LC retention time of 932 s.
The result for `COC(=O)c1c(-c2cccc(F)c2)noc1NCCN1CCCC1` reads 640 s.
For the compound `CCOC(=O)c1nc(NCCCN2CCN(c3cc(C)ccc3C)CC2)c2ccccc2n1`, the RP-LC retention time stood at 715 s.
The result for `CCSc1nnc(-c2nn(C)c3c2CN(S(=O)(=O)c2cccc(Cl)c2)CC3)n1CC` reads 989 s.
The same measure for `Cc1cccc(-c2nc(N3CC4(C)CC3CC(C)(C)C4)c3ccccc3n2)c1` (configuration not stated): 1060 s; for `COc1ccc(CN2C=C(C(=O)OCc3noc(-c4ccccc4F)n3)C(C)=NS2(=O)=O)cc1`: 1090 s; for `CCOc1ccc(Cc2nc(-c3ccc4c(c3)oc(=O)n4C)no2)cc1OCC`: 976 s.
The result for `Cc1cc(NS(=O)(=O)c2cn(CC(C)C)c3ncccc23)ccc1F` reads 989 s.
Consider `CCCN1C(=O)Cc2ccccc2C1C(=O)NCCOC` (configuration not stated), for which the RP-LC retention time worked out at 641 s.
The same measure for `CC(C)CCN1C(=O)C2CCCN2C(=O)c2ccccc21` (configuration not stated): 797 s.
The same measure for `Cc1ccc(CN2CCc3nc(N4CCN(c5ccccc5F)CC4)ncc3C2)s1`: 799 s.
With `CCn1cc(-c2ccc(F)cc2)cc1C(=O)O`, the RP-LC retention time was 861 s.
The result for `CC(C)(O)CC[C@@H](O)[C@](C)(O)[C@H]1CC[C@@]2(O)C3=CC(=O)[C@@H]4C[C@@H](O)[C@@H](O)C[C@]4(C)[C@H]3CC[C@]12C` reads 629 s; that for `CC(=O)N1c2ccc(S(=O)(=O)N3CCCCC3)cc2CC1C(=O)N1CCN(c2ccccn2)CC1` (configuration not stated), 645 s; that for `O=C1COc2ccccc2N1Cc1nc(-c2ccc(F)c(Br)c2)no1`, 1120 s.
For the compound `CCSc1ccccc1C(=O)NC(C)Cc1ccco1` (configuration not stated), the RP-LC retention time is 841 s.
The same measure for `COc1cccc(-c2nc(C3CCN(S(=O)(=O)c4ccc(F)cc4)CC3)no2)c1`: 1100 s; for `Cc1ccc(NS(=O)(=O)c2cc3n(c2)CCCNC3=O)c(F)c1`: 663 s.
For `Cc1cc(C)cc(C(=O)Nc2ccc3c(c2)Sc2ncccc2C(=O)N3C(C)C)c1`, the RP-LC retention time turned out to be 1030 s.
The result for `CC1=C(C(=O)N2CCOCC2)C(c2ccc(Cl)cc2)C2=C(CC(C)(C)CC2=O)N1` (configuration not stated) reads 710 s; that for `CN(C(=O)Cn1nc2n(c1=O)CCCCC2)c1ccccc1`, 655 s.
The result for `COc1ccccc1-n1nnc(C(=O)OCc2nc(-c3ccccc3)oc2C)c1C` reads 972 s; that for `O=C(Cc1cccs1)N1CCN(c2ccc(-c3noc(C4CC4)n3)cc2)CC1`, 934 s; that for `CC(C)NC(=O)c1ccc(OCC2CCCN(C(=O)Cc3ccccc3Cl)C2)cc1` (configuration not stated), 899 s.
As for `CCc1noc2nc(C)n(CC(=O)NCc3ccccc3OC)c(=O)c12`, the RP-LC retention time amounted to 832 s.
The same measure for `CC(C)CNC(=O)c1nc2cccnc2n(C)c1=O`: 701 s.
`CCCNC(=O)N(C1CCOCC1)C1CCN(C(=O)Nc2c(F)cccc2F)CC1`: the RP-LC retention time was determined as 685 s.
The result for `CC(C)c1noc(-c2ccc(-n3cnc(C(=O)NC4CCCCC4)c3)nc2)n1` reads 741 s; that for `CCN(CC)C(=O)C1Cn2cccc2C(=O)N1C` (configuration not stated), 606 s; that for `CCC[C@H](Nc1nc(-c2ccc(NC(=O)NCC)c(OC)c2)ncc1C)c1cccnc1`, 666 s.
The same measure for `CCc1c(C(=O)O)nnn1-c1cccc(OC)c1`: 704 s.
Turning to `CCN1CCN(CCCNC(=O)c2noc(C)c2Cn2nc(C)cc2C)CC1`, the RP-LC retention time came out at 572 s.
Consider `O=C(CCCc1ccccc1)N1CCN2CCS(=O)(=O)N(C3CC3)C(=O)C2C1` (configuration not stated), for which the RP-LC retention time amounted to 852 s.
The result for `O=C1c2ccccc2C(=O)N1CCn1ncccc1=O` reads 603 s; that for `Cc1nc(OCC(=O)Nc2ccc(F)c(Cl)c2)c2ccccc2n1`, 782 s; that for `COc1ccc(-c2noc(-c3cccnc3N3CCN(c4ccccc4OC)CC3)n2)cc1`, 1150 s.
Compound `CCCNC(=O)C1CCCN(C(=O)c2cc(C)cc(C)c2)C1` (configuration not stated) yielded an RP-LC retention time of 746 s.
`Cc1cc(C)c(C(=O)N2CCC(CC(=O)NCc3cccc(Br)c3)CC2)[nH]1` registered an RP-LC retention time of 820 s.
As to `COC(=O)c1ccccc1S(=O)(=O)Nc1ccc2c(c1)CCC(=O)N2`, the RP-LC retention time came to 697 s.
In turn, `O=c1c2scc(-c3ccc(F)cc3)c2ncn1CCOc1ccccc1` returned an RP-LC retention time of 1070 s.
Compound `COc1cc(OC)c(NC(=O)CN2C(=O)CN(C)C(=O)c3ccccc32)cc1Cl` gave an RP-LC retention time of 719 s.
Turning to `O=C(C1CCCN(c2ncnc3c2nc2n3CCCCC2)C1)N1CCCCCC1` (configuration not stated), the RP-LC retention time amounted to 766 s.
The result for `CCOC(=O)C1=C(C)NC(=O)NC1c1c(F)cccc1Cl` (configuration not stated) reads 724 s; that for `Cc1cc2c(=O)n(CC(=O)NCc3cccc(Cl)c3)c3cccnc3n2n1`, 727 s; that for `COc1cccc(CNC(=O)N2CCC3(CC2)NC(=O)c2ccccc2O3)c1`, 739 s.
The compound `CCCC(=O)Nc1ccc(-n2cnc(C(=O)NC3CCCCC3)c2)nc1` gave an RP-LC retention time of 758 s.
Compound `Cc1nc(C(=O)Nc2ccccc2)c(C)o1` registered an RP-LC retention time of 809 s.
The result for `O=c1c2ccc(Cl)cc2oc2cc(O)cc(O)c12` reads 979 s; that for `COc1ccccc1CNS(=O)(=O)c1cc(-c2[nH]ncc2C(=O)N2CCCC2)oc1C`, 694 s; that for `O=C(NCCc1cccs1)c1cc2n(n1)CCCN(Cc1ccc(F)cc1)C2=O`, 868 s.
The result for `O=C(NCCCN1CCOCC1)c1ccc2c(c1)N(C(=O)c1ccc(F)cc1)CC2` reads 615 s; that for `CSc1ccc(CNC(=O)Cn2cnc3nc4c(cc3c2=O)CCCC4)cc1`, 733 s; that for `Nc1cc(C2CCN(S(=O)(=O)Cc3ccccc3)CC2)no1`, 732 s.
Consider `Cc1cc(=O)n(CC(=O)N2CCN(c3ccc(F)cc3)CC2)c(N2CCOCC2)n1`, for which the RP-LC retention time stood at 674 s.
The result for `O=C(Nc1ccccc1F)N1CCC2(CCC2N2CCOCC2)CC1` (configuration not stated) reads 554 s; that for `Cc1cc(Br)ccc1-c1ccc(CNCCCN(C)C)o1`, 927 s.
The same measure for `CCNC(=O)Nc1ccc(OCC(=O)N2CCN(c3ncccn3)CC2)nc1`: 604 s.
For `CCN1CCN(Cc2nc(-c3ccc(N4CCCC(C)C4)nc3)no2)CC1` (configuration not stated), the RP-LC retention time amounted to 610 s.
The same measure for `O=C(Cn1nc2c3c4c(sc3ncn2c1=O)CCCC4)N1CCc2ccccc2C1`: 1140 s; for `CC1=C(c2ccccc2)S(=O)(=O)N=C1N1CCCN(C(=O)C(C)(C)C)CC1`: 803 s; for `Cc1ccsc1CN1CCC(c2nc(-c3cnccn3)n[nH]2)CC1`: 567 s.
`Cc1ccc(NC(=O)NCC(c2cccnc2)c2cn(C)c3ccccc23)cc1F` (configuration not stated) returned an RP-LC retention time of 722 s.
For `O=C(NCC1CC(=O)N(c2ccc3c(c2)OCO3)C1)c1ccccc1F` (configuration not stated), the RP-LC retention time amounted to 664 s.
For the compound `CCCC(NC(=O)c1cccc(Cl)c1)C(=O)Nc1nc2ccccc2[nH]1` (configuration not stated), the RP-LC retention time was 742 s.
In turn, `Cc1occc1C(=O)N1CCC2(CC1)CC(C)(O)CCO2` (configuration not stated) came in with an RP-LC retention time of 645 s.
Consider `Cn1c(NC(=O)c2ccc(N3C(=O)CCC3=O)cc2)cc(=O)n(C)c1=O`, for which the RP-LC retention time was found to be 565 s.
